Assay results published in US20050124667A1, “Oxamide inhibitors of plasminogen activator inhibitor-1” (priority 2003, published 2005).

SMILES	melting point
N#Cc1ccc(O)c(NC(=O)C(=O)Nc2cc(Cl)cc(Cl)c2O)c1 [Example 15, N-(5-Cyano-2-hydroxy-phenyl)-N′-(3,5-dichloro-2-hydroxy-phenyl)-oxalamide]	298 °C
O=C(Nc1cc(Cl)cc(Cl)c1O)C(=O)Nc1c(O)ccc2ccccc12 [Example 8, N-(3,5-Dichloro-2-hydroxy-phenyl)-N′-(2-hydroxy-naphthalen-1-yl)-oxalamide]	265 °C
O=C(Nc1cc(-c2ccccc2)ccc1O)C(=O)Nc1cc(Cl)cc(Cl)c1O [Example 5, N-(3,5-Dichloro-2-hydroxy-phenyl)-N′-(4-hydroxy-biphenyl-3-yl)-oxalamide]	288 °C
COC(=O)c1ccc(NC(=O)C(=O)Nc2cc(Cl)cc(Cl)c2O)c(O)c1 [Example 12, 4-[(3,5-Dichloro-2-hydroxy-phenylaminooxalyl)-amino]-3-hydroxy-benzoic Acid Methyl Ester]	271 °C
COc1ccc(O)c(NC(=O)C(=O)Nc2cc(Cl)cc(Cl)c2O)c1 [Example 17, N-(3,5-Dichloro-2-hydroxy-phenyl)-N′-(2-hydroxy-5-methoxy-phenyl)-oxalamide]	273 °C
Cc1cccc(O)c1NC(=O)C(=O)Nc1cc(Cl)cc(Cl)c1O [Example 10, N-(3,5-Dichloro-2-hydroxy-phenyl)-N′-(2-hydroxy-6-methyl-phenyl)-oxalamide]	260 °C
O=C(Nc1cc([N+](=O)[O-])ccc1O)C(=O)Nc1cc(Cl)cc(Cl)c1O [Example 4, N-(3,5-Dichloro-2-hydroxy-phenyl)-N′-(2-hydroxy-5-nitro-phenyl)-oxalamide]	386 °C
Cc1ccc(NC(=O)C(=O)Nc2cc(Cl)cc(Cl)c2O)c(O)c1 [Example 3, N-(3,5-Dichloro-2-hydroxy-phenyl)-N′-(2-hydroxy-4-methyl-phenyl)-oxalamide]	283 °C
O=C(Nc1cc(F)ccc1O)C(=O)Nc1cc(Cl)cc(Cl)c1O [Example 18, N-(3,5-Dichloro-2-hydroxy-phenyl)-N′-(5-fluoro-2-hydroxy-phenyl)-oxalamide]	297 °C
O=C(Nc1cc2ccccc2cc1O)C(=O)Nc1cc(Cl)cc(Cl)c1O [Example 6, N-(3,5-Dichloro-2-hydroxy-phenyl)-N′-(3-hydroxy-naphthalen-2-yl)-oxalamide]	313 °C
O=C(Nc1cc(Cl)ccc1O)C(=O)Nc1cc(Cl)cc(Cl)c1O [Example 7, N-(5-Chloro-2-hydroxy-phenyl)-N′-(3,5-dichloro-2-hydroxy-phenyl)-oxalamide]	311 °C
CCC(C)(C)c1ccc(NC(=O)C(=O)Nc2cc(Cl)cc(Cl)c2O)c(O)c1 [Example 9, N-(3,5-Dichloro-2-hydroxy-phenyl)-N′-[4-(1,1-dimethyl-propyl)-2-hydroxy-phenyl]-oxalamide]	260 °C

Other lines, results leading:

melting point	SMILES
270 °C	CCOC(=O)c1ccc(O)c(NC(=O)C(=O)Nc2cc(Cl)cc(Cl)c2O)c1 [Example 25, 3-[(3,5-Dichloro-2-hydroxy-phenylaminooxalyl)-amino]-4-hydroxy-benzoic Acid Ethyl Ester]
281 °C	O=C(Nc1cc(C(F)(F)F)ccc1O)C(=O)Nc1cc(Cl)cc(Cl)c1O [Example 21, N-(3,5-Dichloro-2-hydroxy-phenyl)-N′-(2-hydroxy-5-trifluoromethyl-phenyl)-oxalamide]
225 °C	O=C(Nc1ccc(C(=O)NCCCn2ccnc2)cc1O)C(=O)Nc1cc(Cl)cc(Cl)c1O [Example 43, N-(3,5-Dichloro-2-hydroxy-phenyl)-N′-[2-hydroxy-4-(3-imidazol-1-yl-propylcarbamoyl)-phenyl]-oxalamide]
302 °C	O=C(Nc1cc(Cl)cc(Cl)c1O)C(=O)Nc1ccc(F)c(F)c1O [Example 20, N-(3,5-Dichloro-2-hydroxy-phenyl)-N′-(3,4-difluoro-2-hydroxy-phenyl)-oxalamide]
220 °C	CN1CCCC1CCNC(=O)c1ccc(O)c(NC(=O)C(=O)Nc2cc(Cl)cc(Cl)c2O)c1 (racemic) [Example 34, N-(3,5-Dichloro-2-hydroxy-phenyl)-N′-{2-hydroxy-5-[2-(1-methyl-pyrrolidin-2-yl)-ethylcarbamoyl]-phenyl}-oxalamide (Racemic)]
205 °C	CN(C)CCCNC(=O)c1ccc(O)c(NC(=O)C(=O)Nc2cc(Cl)cc(Cl)c2O)c1 [Example 35, N-(3,5-Dichloro-2-hydroxy-phenyl)-N′-[5-(3-dimethylamino-propylcarbamoyl)-2-hydroxy-phenyl]-oxalamide]
232 °C	CN1CCN(CCCNC(=O)c2ccc(O)c(NC(=O)C(=O)Nc3cc(Cl)cc(Cl)c3O)c2)CC1 [Example 30, N-(3,5-Dichloro-2-hydroxy-phenyl)-N′-{2-hydroxy-5-[3-(4-methyl-piperazin-1-yl)-propylcarbamoyl]-phenyl}-oxalamide]
250 °C	O=C(Nc1cc(C(=O)NCc2ccncc2)ccc1O)C(=O)Nc1cc(Cl)cc(Cl)c1O [Example 33, N-(3,5-Dichloro-2-hydroxy-phenyl)-N′-{2-hydroxy-5-[(pyridin-4-ylmethyl)-carbamoyl]-phenyl}-oxalamide]
175 °C	O=C(Nc1cc(C(=O)NCCCn2ccnc2)ccc1O)C(=O)Nc1cc(Cl)cc(Cl)c1O [Example 36, N-(3,5-Dichloro-2-hydroxy-phenyl)-N′-[2-hydroxy-5-(3-imidazol-1-yl-propylcarbamoyl)-phenyl]-oxalamide]
254 °C	CCOC(=O)C(Cc1ccccc1)NC(=O)c1ccc(O)c(NC(=O)C(=O)Nc2cc(Cl)cc(Cl)c2O)c1 (stereo in doubt) [Example 32, 2(2R)-{3-[(3,5-Dichloro-2-hydroxy-phenylaminooxalyl)-amino]-4-hydroxy-benzoylamino}-3-phenyl-propionic acid ethyl ester]
323 °C	O=C(Nc1ccc(C(=O)O)cc1O)C(=O)Nc1cc(Cl)cc(Cl)c1O [Example 24, 4-[(3,5-Dichloro-2-hydroxy-phenylaminooxalyl)-amino]-3-hydroxy-benzoic Acid]
296 °C	O=C(Nc1cccc(Cl)c1O)C(=O)Nc1cc(Cl)cc(Cl)c1O [Example 19, N-(3-Chloro-2-hydroxy-phenyl)-N′-(3,5-dichloro-2-hydroxy-phenyl)-oxalamide]
